Test results: US20230310388A1, “Methods and Compositions for Treating Fungal Infections” (Neoculi Pty Ltd, priority 2020, published 2023)
Values after ≈ are worked out from the molar mass of the structure shown. Values joined by “and” are separate entries in the source; they are usually repeats but may differ in a detail not shown here. Equal values may be shown once.

How the values were obtained:
Type in all cases: cell-based
Candida albicans = test: CLSI broth microdilution MIC (Example 4)
Procedure: (§1) Antifungal minimum inhibitory concentration (MIC) testing was undertaken as recommended by the CLSI. Briefly, antifungal susceptibility tests were performed for amphotericin B, robenidine (NCL812) and robenidine (NCL) analogs (NCL004, NCL020, NCL023, NCL024, NCL062, NCL094, NCL097, NCL110, NCL113, NCL114, NCL115, NCL135, NCL139, NCL180, NCL181, NCL195, NCL219, NCL220, NCL228, NCL247, NCL250, NCL259, NCL260, NCL263, NCL265, NCL269, NCL274) by standard broth microdilution method (CLSI) in RPMI 1640. Various concentrations (ranging from high to low) of the selected compounds were prepared in RPMI 1640 medium by double dilution in 96-well microtitre plates. Each well contained an inoculum of approximately 2×10^3 cells/mL. The wells without addition of drugs served as negative (no inoculum) and positive (inoculum only) growth controls. Microtitre plates were incubated at 35° C. for 24-48 hours. […] Antifungal MICs were determined for each isolate in duplicate; if the values obtained were different, the MIC test was repeated a third time.

Cryptococcus neoformans = test: CLSI broth microdilution MIC (Example 4)
Procedure: as §1

[1] = tested on: Candida albicans ATCC14053; test: Broth micro-dilution screen at 16 μg/mL and MIC (Example 9); conditions: for Screen at 16 μg/mL: single concentration 16 μg/mL, Growth or No growth of C. albicans ATCC14053; for MIC: C. albicans ATCC14053, test range 0.25-64 μg/mL, duplicate
Procedure: The antifungal activity of 201 NCL analogs against Candida albicans ATCC14053 in vitro was investigated. A broth micro-dilution method was used, according to CLSI guidelines as described. NCL analogs were dissolved in DMSO and originally screened at a single concentration of 16 μg/mL.

| SMILES | Screen at 16 μg/mL [1] | further results |
| --- | --- | --- |
| Cl.N=C(NN=Cc1ccccc1Cl)NN=Cc1ccccc1Cl [NCL020] | Growth | MIC at 24-48 hours (Candida albicans; Candida albicans ATCC 90028): >32 µg/mL; MIC at 24-48 hours (Candida albicans; Candida albicans SA3): >32 µg/mL; MIC at 24-48 hours (Cryptococcus neoformans; Cryptococcus neoformans SA1): >32 µg/mL; MIC at 24-48 hours (Cryptococcus neoformans; Cryptococcus neoformans SA2): >32 µg/mL |
| Cl.N=C(NN=CC1CCCCC1)NN=CC1CCCCC1 [NCL094] | Growth | MIC at 24-48 hours (Candida albicans; Candida albicans ATCC 90028): >32 µg/mL; MIC at 24-48 hours (Candida albicans; Candida albicans SA3): >32 µg/mL; MIC at 24-48 hours (Cryptococcus neoformans; Cryptococcus neoformans SA1): >32 µg/mL; MIC at 24-48 hours (Cryptococcus neoformans; Cryptococcus neoformans SA2): >32 µg/mL |
| Cl.N=C(NN=Cc1ccc([N+](=O)[O-])cc1)NN=Cc1ccc([N+](=O)[O-])cc1 [NCL110] | Growth | MIC at 24-48 hours (Candida albicans; Candida albicans ATCC 90028): >32 µg/mL; MIC at 24-48 hours (Candida albicans; Candida albicans SA3): >32 µg/mL; MIC at 24-48 hours (Cryptococcus neoformans; Cryptococcus neoformans SA1): >32 µg/mL; MIC at 24-48 hours (Cryptococcus neoformans; Cryptococcus neoformans SA2): >32 µg/mL |
| Cl.N=C(NN=Cc1cc(Cl)cc(Cl)c1)NN=Cc1cc(Cl)cc(Cl)c1 [NCL114] | Growth | MIC at 24-48 hours (Candida albicans; Candida albicans ATCC 90028): >32 µg/mL; MIC at 24-48 hours (Candida albicans; Candida albicans SA3): >32 µg/mL; MIC at 24-48 hours (Cryptococcus neoformans; Cryptococcus neoformans SA1): >32 µg/mL; MIC at 24-48 hours (Cryptococcus neoformans; Cryptococcus neoformans SA2): >32 µg/mL |
| COc1cc(Br)c(C=NNC(=N)NN=Cc2cc(OC)c(OC)cc2Br)cc1OC.Cl [NCL135] | Growth | MIC at 24-48 hours (Candida albicans; Candida albicans ATCC 90028): >32 µg/mL; MIC at 24-48 hours (Candida albicans; Candida albicans SA3): >32 µg/mL; MIC at 24-48 hours (Cryptococcus neoformans; Cryptococcus neoformans SA1): >32 µg/mL; MIC at 24-48 hours (Cryptococcus neoformans; Cryptococcus neoformans SA2): >32 µg/mL |
| Cl.N=C(NN=Cc1cnc2ccccc2c1)NN=Cc1cnc2ccccc2c1 [NCL139] | No growth | MIC at 24-48 hours (Candida albicans; Candida albicans ATCC 90028): >32 µg/mL; MIC at 24-48 hours (Candida albicans; Candida albicans SA3): >32 µg/mL; MIC at 24-48 hours (Cryptococcus neoformans; Cryptococcus neoformans SA1): >32 µg/mL; MIC at 24-48 hours (Cryptococcus neoformans; Cryptococcus neoformans SA2): >32 µg/mL; MIC [1]: <0.5 µg/mL |
| OCC(=NNc1cc(NN=C(CO)c2ccc(Cl)cc2)ncn1)c1ccc(Cl)cc1 [NCL180] | Growth | MIC at 24-48 hours (Candida albicans; Candida albicans ATCC 90028): >32 µg/mL; MIC at 24-48 hours (Candida albicans; Candida albicans SA3): >32 µg/mL; MIC at 24-48 hours (Cryptococcus neoformans; Cryptococcus neoformans SA1): >32 µg/mL; MIC at 24-48 hours (Cryptococcus neoformans; Cryptococcus neoformans SA2): >32 µg/mL |
| Clc1ccc(C=NNc2cc(NN=Cc3ccc(Cl)cc3)ncn2)cc1 [NCL181] | Growth | MIC at 24-48 hours (Candida albicans; Candida albicans ATCC 90028): >32 µg/mL; MIC at 24-48 hours (Candida albicans; Candida albicans SA3): >32 µg/mL; MIC at 24-48 hours (Cryptococcus neoformans; Cryptococcus neoformans SA1): >32 µg/mL; MIC at 24-48 hours (Cryptococcus neoformans; Cryptococcus neoformans SA2): >32 µg/mL |
| Nc1nc(NN=Cc2ccc(Br)cc2)nc(NN=Cc2ccc(Br)cc2)n1 [NCL212] | Growth | – |
| Nc1nc(NN=CC2CCCCC2)nc(NN=CC2CCCCC2)n1 [NCL213] | Growth | – |
| Nc1nc(NN=Cc2ccccc2)nc(NN=Cc2ccccc2)n1 [NCL214] | Growth | – |
| CC(=NNC(=N)NN=C(C)c1ccc(Cl)cc1F)c1ccc(Cl)cc1F.Cl [NCL215] | Growth | – |
| Cl.N=C(NN=Cc1ccc(Cl)cc1F)NN=Cc1ccc(Cl)cc1F [NCL216] | Growth | MIC [1]: >64 µg/mL |
| C/C(=N\NC(=N)N/N=C(\C)c1ccc(C)cc1)c1ccc(C)cc1.Cl [NCL217] | No growth | MIC [1]: 4 µg/mL |
| Nc1nc(NN=Cc2ccc(C(F)(F)F)cc2)cc(NN=Cc2ccc(C(F)(F)F)cc2)n1 [NCL221] | Growth | – |
| Nc1nc(N/N=C/c2ccc(F)c(F)c2)cc(N/N=C/c2ccc(F)c(F)c2)n1 [NCL222] | Growth | – |
| CC(=O)Nc1ccc(C=NNc2cc(NN=Cc3ccc(NC(C)=O)cc3)nc(N)n2)cc1 [NCL223] | Growth | – |
| CCOC(=O)N(/N=C/c1ccc(Cl)cc1)C(=N)N/N=C/c1ccc(Cl)cc1 [NCL224] | Growth | – |
| CC(C)COC(=O)N(N=Cc1ccc(Cl)cc1)C(N)=NN=Cc1ccc(Cl)cc1 [NCL225] | Growth | – |
| NC(=NN=Cc1ccc(Cl)cc1)N(N=Cc1ccc(Cl)cc1)C(=O)NCc1ccccc1 [NCL227] | Growth | MIC [1]: >64 µg/mL |
| CCCCCCNC(=O)N(N=Cc1ccc(Cl)cc1)C(N)=NN=Cc1ccc(Cl)cc1 [NCL228] | No growth | MIC at 24-48 hours (Candida albicans; Candida albicans ATCC 90028): >32 µg/mL; MIC at 24-48 hours (Candida albicans; Candida albicans SA3): >32 µg/mL; MIC at 24-48 hours (Cryptococcus neoformans; Cryptococcus neoformans SA1): >32 µg/mL; MIC at 24-48 hours (Cryptococcus neoformans; Cryptococcus neoformans SA2): >32 µg/mL; MIC [1]: 0.5 µg/mL and 1 µg/mL |

| SMILES | Screen at 16 μg/mL [1] | further results |
| --- | --- | --- |
| NC(=NN=Cc1ccc(Cl)cc1)N(N=Cc1ccc(Cl)cc1)C(=O)NCc1ccco1 [NCL229] | Growth | – |
| COc1ccc(C=NNc2cc(NN=Cc3ccc(OC)cc3)nc(N)n2)cc1 [NCL230] | Growth | – |
| CC(=NNC(=N)N)c1ccc(C(C)(C)C)cc1 [NCL231] | Growth | – |
| CC(C)(C)c1ccc(C=NNC(=N)N)cc1 [NCL232] | Growth | – |
| CCCC(=NNC(=N)N)c1ccc(Cl)cc1.Cl [NCL233] | Growth | – |
| CCC(=NNC(=N)N)c1ccc(Cl)cc1 [NCL234] | Growth | – |
| N=C(N)NN=Cc1ccc(Cl)cc1F [NCL235] | Growth | – |
| CC(=NNC(=N)N)c1ccc(Cl)cc1F [NCL236] | Growth | – |
| N=C(N)NN=C(CC1CCCCC1)c1ccc(Cl)cc1O [NCL237] | Growth | – |
| Nc1nc(NN=Cc2ccc(Cl)nc2)cc(NN=Cc2ccc(Cl)nc2)n1 [NCL238] | Growth | – |
| Nc1nc(NN=Cc2cccnc2)cc(NN=Cc2cccnc2)n1 [NCL239] | Growth | – |
| Nc1nc(NN=Cc2ccncc2)cc(NN=Cc2ccncc2)n1 [NCL241] | Growth | – |
| Nc1nc(NN=Cc2ccc(O)c(O)c2)cc(NN=Cc2ccc(O)c(O)c2)n1 [NCL243] | No growth | MIC [1]: 16 µg/mL and 32 µg/mL |
| Nc1nc(NN=Cc2cccc(O)c2O)cc(NN=Cc2cccc(O)c2O)n1.O=Cc1cccc(O)c1O [NCL244] | Growth | MIC [1]: >64 µg/mL |
| Nc1nc(NN=Cc2cccc3ccccc23)cc(NN=Cc2cccc3ccccc23)n1 [NCL245] | Growth | – |
| Nc1nc(NN=CC=Cc2ccccc2)cc(NN=CC=Cc2ccccc2)n1 [NCL246] | Growth | – |
| Nc1nc(N/N=C/c2cc(O)c(O)c(O)c2)cc(N/N=C/c2cc(O)c(O)c(O)c2)n1 [NCL247] | No growth | MIC at 24-48 hours (Candida albicans; Candida albicans ATCC 90028): >32 µg/mL; MIC at 24-48 hours (Candida albicans; Candida albicans SA3): >32 µg/mL; MIC at 24-48 hours (Cryptococcus neoformans; Cryptococcus neoformans SA1): >32 µg/mL; MIC at 24-48 hours (Cryptococcus neoformans; Cryptococcus neoformans SA2): >32 µg/mL; MIC [1]: 2 µg/mL and 4 µg/mL |
| N=C(N)NN=Cc1cccc2ccccc12 [NCL248] | Growth | – |
| N=C(N)NN=CC=Cc1ccccc1 [NCL249] | Growth | – |
| Clc1ccc(C=NCCCN=Cc2ccc(Cl)cc2)cc1 [NCL252] | Growth | – |
| CN(C)c1ccc(/C=N/NC(=N)N)cc1 [NCL253] | Growth | – |

| SMILES | Screen at 16 μg/mL [1] | further results |
| --- | --- | --- |
| CCCCCC(=NNC(=N)N)c1ccc(Cl)cc1.Cl [NCL254] | No growth | MIC [1]: 8 µg/mL |
| Nc1nc(NN=Cc2ccc(-c3ccccc3)cc2)cc(NN=Cc2ccc(-c3ccccc3)cc2)n1 [NCL255] | Growth | – |
| Nc1nc(NN=Cc2ccc(O)cc2O)cc(NN=Cc2ccc(O)cc2O)n1 [NCL256] | Growth | – |
| Clc1ccc(CNCCCCNCc2ccc(Cl)cc2)cc1 [NCL258] | Growth | – |
| Cl.N=C(N)NN=Cc1ccc2ccccc2c1 [NCL261] | Growth | – |
| Nc1nc(NN=CCCc2ccccc2)cc(NN=CCCc2ccccc2)n1 [NCL262] | Growth | – |
| Nc1nc(NN=Cc2ccc3ccccc3c2)cc(NN=Cc2ccc3ccccc3c2)n1 [NCL264] | Growth | – |
| N=C(N)NN=C(CCC1CCCC1)c1ccc(Cl)cc1 [NCL266] | No growth | MIC [1]: 4 µg/mL (≈ 13.7 µM) |
| CC(=NNC(=N)NN=C(C)c1c[nH]c2ccccc12)c1c[nH]c2ccccc12 [NCL268] | No growth | MIC [1]: 4 µg/mL (≈ 10.8 µM) |
| CCCCCC(=NNC(=N)NN=C(CCCCC)c1ccc(Cl)cc1)c1ccc(Cl)cc1 [NCL271] | No growth | MIC [1]: 1 µg/mL (≈ 2.11 µM) |
| CCCCCCCC(=NNC(=N)NN=C(CCCCCCC)c1ccc(Cl)cc1)c1ccc(Cl)cc1 [NCL272] | Growth | – |
| CCOCC(=NNC(=N)NN=C(COCC)c1ccc(Cl)cc1)c1ccc(Cl)cc1 [NCL275] | Growth | – |
| Cl.N=C(NN=Cc1cccc2nsnc12)NN=Cc1cccc2nsnc12 [NCL276] | Growth | – |
| Cl.N=C(NN=Cc1ccc2nsnc2c1)NN=Cc1ccc2nsnc2c1 [NCL277] | Growth | – |
| Cl.N=C(N)NN=Cc1cnc2ccccc2n1 [NCL278] | Growth | – |
| Cl.N=C(N)NN=Cc1nc2ccccc2s1 [NCL279] | Growth | – |
| Cl.N=C(N)NN=Cc1ccc2nsnc2c1 [NCL280] | Growth | – |
| Cl.N=C(N)N/N=C/c1cccc2nsnc12 [NCL281] | Growth | – |
| Cl.N=C(NN=Cc1ccc2ncccc2c1)NN=Cc1ccc2ncccc2c1 [NCL282] | No growth | – |
| Cc1nc[nH]c1C=NNC(=N)N.Cl [NCL283] | Growth | – |
